Data on 14 molecules can be found in paper PMC8518066, “Efficient Entropy‐Driven Inhibition of Dipeptidyl Peptidase III by Hydroxyethylene Transition‐State Peptidomimetics” (Chemistry (Weinheim an Der Bergstrasse, Germany), 2021).

For data set [1], the target named is T1, hDPP3 (Homo sapiens, UniProt Q9NY33).
T1 construct: His6 (cleaved yes); made in house; host or cells: E. coli BL21-CodonPlus (DE3) RIL
T1 sequence (Q9NY33 1-726): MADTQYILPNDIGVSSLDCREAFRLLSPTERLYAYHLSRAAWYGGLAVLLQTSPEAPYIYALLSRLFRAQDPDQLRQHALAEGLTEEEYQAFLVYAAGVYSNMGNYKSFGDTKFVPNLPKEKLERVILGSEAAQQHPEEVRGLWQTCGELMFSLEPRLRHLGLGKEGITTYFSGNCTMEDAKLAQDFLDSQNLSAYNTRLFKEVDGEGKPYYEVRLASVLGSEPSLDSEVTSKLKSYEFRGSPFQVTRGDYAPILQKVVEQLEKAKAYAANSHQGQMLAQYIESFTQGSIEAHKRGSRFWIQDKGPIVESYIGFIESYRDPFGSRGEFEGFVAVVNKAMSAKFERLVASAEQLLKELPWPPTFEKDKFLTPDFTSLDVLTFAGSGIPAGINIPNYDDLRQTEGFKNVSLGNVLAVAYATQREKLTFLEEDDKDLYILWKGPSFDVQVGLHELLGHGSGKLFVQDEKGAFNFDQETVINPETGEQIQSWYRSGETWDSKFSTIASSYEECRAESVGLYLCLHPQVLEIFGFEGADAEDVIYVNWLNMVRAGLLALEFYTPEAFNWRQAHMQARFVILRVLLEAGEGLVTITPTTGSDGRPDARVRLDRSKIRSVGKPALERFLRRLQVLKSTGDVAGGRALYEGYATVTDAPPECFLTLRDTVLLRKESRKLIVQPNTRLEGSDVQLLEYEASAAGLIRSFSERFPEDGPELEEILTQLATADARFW
The experiment in a line: Fluorescence-based competitive enzyme inhibition assay (degradation of H-Arg-Arg-βNA substrate). Conditions: for pIC50: hDPP3, H-Arg-Arg-βNA substrate, 37 °C, pH 8.0. Type of data set: biochemical.

Data set [2] relates to placental DPP3. Details: method as in PMID 9711218. Conditions: placental DPP3, H-Arg-Arg-βNA substrate; cited from earlier work.
Data set [3] has as its system Mammalian DPP3. Details: method as in PMID 7931295, PMID 9425109. Particulars: cited from earlier work.
Data set [4] concerns DPP3 in mouse brain homogenate. The experiment in a line: Ex vivo DPP3 inhibition in mouse brain homogenate. Type of data set: biochemical. Conditions: Figure SI1.
Data set [5] has as its target T2, hDPP3 (inactive variant E451A) (Homo sapiens, UniProt Q9NY33, E451A).
T2 construct: His6 (cleaved yes); made in house; host or cells: E. coli BL21-CodonPlus (DE3) RIL
T2 sequence (Q9NY33 1-726 E451A): T1 sequence (Q9NY33 1-726) with E451A
The experiment in a line: Isothermal titration calorimetry (ITC). It is filed as binding. Conditions: mean of three independent measurements; for pKd: hDPP3 E451A, 298 K. Background: ITC needs no label: the signal is the heat of the interaction.

Data set [6] has as its target T1, hDPP3. The experiment in a line: Thermal shift assay (Thermofluor). Type of data set: binding. Conditions: 10 µM hDPP3, 50 µM HER. On the technique in general: In DSF a fluorescence change marks the thermal transition of the protein.
The target of data set [7] is T1, hDPP3. The experiment in a line: Time-dependent inhibition of hDPP3 by tynorphin and HER. Type of data set: biochemical. Conditions: inhibitor at 5 times IC50, room temperature, 0-24 h.

Where a chain is given by its changes, count along the chain named. pIC50, pKd: −log10 of the molar value. Where two headings read alike, the source gives them in different places.

For the molecule `CC(C)[C@H](N)C(=O)N[C@@H](C(C)C)[C@H](O)C[C@@H](Cc1ccc(F)cc1)C(=O)N1CCC[C@H]1C(=O)N[C@@H](Cc1c[nH]c2ccccc12)C(=O)O`, the melting point (commonly the temperature, or range, at which the solid turns liquid) lay in the range of 168 to 170 °C.
On the same count and under the same terms, the result for `Cc1ccc(C[C@H](C[C@@H](O)[C@@H](NC(=O)[C@@H](N)C(C)C)C(C)C)C(=O)N2CCC[C@H]2C(=O)N[C@@H](Cc2c[nH]c3ccccc23)C(=O)O)cc1` reads 160 to 162 °C.
Molecule `CC(C)[C@H](N)C(=O)N[C@@H](C(C)C)[C@H](O)C[C@@H](Cc1ccc(O)cc1)C(=O)N1CCC[C@H]1C(=O)N[C@@H](Cc1c[nH]c2ccccc12)C(=O)O` yielded a melting point of 172 to 174 °C.
With `CC(C)[C@H](N)C(=O)N[C@@H](C(C)C)[C@H](O)C[C@@H](Cc1ccccc1)C(=O)N1CCCC[C@H]1C(=O)N[C@@H](Cc1c[nH]c2ccccc12)C(=O)O` [37 a], the melting point is 160 to 162 °C. Further, the pIC50 (usually the negative decadic logarithm of the IC50, by convention in mol/L) in data set [1] was 4.46.
`CC(C)[C@H](NC(=O)[C@@H](N)C(C)(C)C)[C@H](O)C[C@@H](Cc1ccccc1)C(=O)N1CCCC[C@H]1C(=O)N[C@@H](Cc1c[nH]c2ccccc12)C(=O)O` [37 b] showed a melting point of 164 to 166 °C.
As for `CC1C(=O)c2cc(O)c3c(c2C(O)C1O)C(=O)c1cccc(O)c1-3` (stereo not shown) [B, fluostatins A and B], in data set [2], the pIC50 is 4.13.
As to `O=c1oc(Cl)c(Cl)c2ccccc12` [DCI, 3,4‐dichloroisocoumarin], the “inhibition of mammalian DPP3” value in data set [3] (covalently binding serine peptidase inhibitors) is recorded as “significantly inhibited”.
Consider `CC(C)C(N)C(=O)NC(C(C)C)C(O)CC(Cc1ccccc1)C(=O)N1CCCC1C(=O)NC(Cc1c[nH]c2ccccc12)C(=O)O` (stereo not shown) [HER], for which the melting point was 148 to 152 °C. In data set [4], the “inhibition of DPP3 in mouse brain homogenate” value is on record as “efficiently inhibit DPP3 in mouse brain homogenate without losing much of its potency”. In data set [5], the pKd (in general, −log10 of the Kd, conventionally taken in molar units) is 4.96; the “-TΔS” value is -16.0 kcal/mol; the ΔH worked out at 10.7 kcal/mol. Further, the “potency relative to SHE (IC50 ratio)” value in data set [1] (HER versus SHE) was found to be 7 fold. This molecule showed a pIC50 in data set [1] of 4.86. The “Melting temperature (Tm) of hDPP3+HER” value in data set [6] (t=0 h of incubation) is 57.5 °C. Moreover, in data set [6] (t=24 h of incubation), the “Melting temperature (Tm) of hDPP3+HER” value was found to be 57 °C. Further, the “time-dependent inhibition of hDPP3 (stability against the peptidase)” value in data set [7] is recorded as “efficiently inhibit the activity over a period of 24 h”.
For `O=S(=O)(F)Cc1ccccc1` [PMSF, phenylmethanesulfonylfluoride], the “inhibition of mammalian DPP3” value in data set [3] is given as “significantly inhibited”.
`CC(C)[C@H](N)C(=O)N[C@@H](C(C)C)[C@@H](O)C[C@@H](Cc1ccccc1)C(=O)N1CCC[C@H]1C(=O)N[C@@H](Cc1c[nH]c2ccccc12)C(=O)O` [SHE]: in data set [5], the pKd was 4.64, the “-TΔS” value was -8.1 kcal/mol and the ΔH came out at 2.3 kcal/mol. This molecule gave a pIC50 in data set [1] of 4.01.
Take `Cc1ccc(S(=O)(=O)N[C@@H](Cc2ccccc2)C(=O)CCl)cc1` [TPCK, tosyl‐phenylalanyl chloromethyl ketone]: the “inhibition of mammalian DPP3” value in data set [3] is reported as “significantly inhibited”.
In turn, `COC(=O)[C@H](Cc1c[nH]c2ccccc12)NC(=O)[C@@H]1CCCN1C(=O)[C@H](Cc1ccc(O)cc1)C[C@@H](O)[C@@H](NC(=O)[C@@H](N)C(C)C)C(C)C` [compound 32] yielded a melting point of 148 to 150 °C. This molecule showed a pIC50 in data set [1] of 4.75.
Regarding `Cc1cc(=O)c2c(cc(O)c3c4c(O)cccc4c(=O)c32)c1=O` [fluostatins A], the pIC50 in data set [2] is 5.84.
tynorphin [reference compound]: the “time-dependent inhibition of hDPP3 (stability against the peptidase)” value in data set [7] was “lost its efficacy within the first hour”.
